Measured values from patent US11084829B2, “Ubiquitin-specific-processing protease 7 (USP7) modulators and uses thereof” (RAPT THERAPEUTICS, INC., priority 2018, dated 2021).

What was measured:
Format in all cases: cell-based
[1] = test system: M07e; assay: Cell viability (CellTiter-Glo), M07e; conditions: M-07e, AML, p53 wild-type
Experimental: (§1) CHP-134 was purchased from Sigma Aldrich, MOLM-13 was purchased from AddexBio, and NB-1 was purchased from Sekisui XenoTech. All other cell lines were purchased from American Type Culture Collection. For all cell lines, identity was confirmed by short tandem repeat profiling and culturing was performed in recommended growth medium. For studies evaluating cellular effects of compound treatment, 250 to 2,000 cells in 40 μl of recommended medium were seeded per well in 384-well plates (Corning 3764). DMSO-solubilized compounds were added in duplicate in a two-fold dilution series using a D300e Digital Dispenser (Hewlett-Packard). Following a 5-day incubation, cell viability was measured using CellTiter-Glo (Promega) following the manufacturer's instructions. Luminescence was measured using a CLARIOstar plate reader (BMG LABTECH) and normalized to that of DMSO-treated cells. IC50 values were determined by non-linear regression using a 4-parameter fit in Prism (GraphPad Software). Inhibitor profiling of the 430-cell line panel was conducted and analyzed similarly.
(§2) USP7 inhibition by the compounds of Examples 31 and 124 reduced the viability of several p53-wild type blood cancer cell lines, including M07e, OCI-AML5 and MOLM13, in vitro as shown in the following Table 3. Idasanutlin was used as a positive control, and as expected these cell lines were also sensitive to this compound.

[2] = test system: OCI-AML5; assay: Cell viability (CellTiter-Glo), OCI-AML5; conditions: Homo sapiens, OCI-AML-5, p53 wild-type
Experimental: as §1, §2

[3] = test system: MOLM13; assay: Cell viability (CellTiter-Glo), MOLM13; conditions: Homo sapiens, MOLM-13; MOLM13, AML, p53 wild-type
Experimental: as §1, §2

[4] = test system: EOL-1; assay: Cell viability (CellTiter-Glo), EOL-1; conditions: Homo sapiens, EOL1; EOL-1, AML, p53 wild-type
Experimental: as §1, §2

[5] = test system: MOLP8; assay: Cell viability (CellTiter-Glo), MOLP8; conditions: Homo sapiens, MOLP-8; MOLP8, MM, p53 wild-type
Experimental: as §1, §2

[6] = test system: NCI-H929; assay: Cell viability (CellTiter-Glo), NCI-H929; conditions: Homo sapiens; NCI-H929, MM, p53 wild-type
Experimental: as §1, §2

[7] = test system: MM.1S; assay: Cell viability (CellTiter-Glo), MM.1S; conditions: Homo sapiens, MM1.S, p53 wild-type
Experimental: as §1, §2

[8] = test system: SH-SY5Y; assay: Cell viability (CellTiter-Glo), SH-SY5Y; conditions: Homo sapiens, neuroblastoma, MYC amplified, p53 wild-type
Experimental: as §1
(§3) USP7 has been reported to stabilize MYCN (also referred to as MYCN proto-oncogene, a gene that is a member of the MYC family which is over-expressed in a variety of tumors). Since MYCN amplification is an established driver mutation in neuroblastoma, the effect of USP7 inhibition on a panel of p53 wild-type, MYCN- or MYC-amplified neuroblastoma cell lines was tested. The USP7 inhibitors of Examples 31 and 124 reduced viability of all three MYCN-amplified and two MYC-amplified neuroblastoma cell lines tested as shown in Table 4. Idasanutlin was used as a positive control, and as expected these cell lines were also sensitive to this compound.

[9] = test system: SK-N-SH; assay: Cell viability (CellTiter-Glo), SK-N-SH; conditions: Homo sapiens, neuroblastoma, MYC amplified, p53 wild-type
Experimental: as §1
(§4) USP7 has been reported to stabilize MYCN (also referred to as MYCN proto-oncogene, a gene that is a member of the MYC family which is over-expressed in a variety of tumors). […]

[10] = test system: IMR-32; assay: Cell viability (CellTiter-Glo), IMR-32; conditions: Homo sapiens; IMR-32, neuroblastoma, MYCN amplified, p53 wild-type
Experimental: as §1, §4

[11] = test system: CHP-134; assay: Cell viability (CellTiter-Glo), CHP-134; conditions: Homo sapiens; CHP-134, neuroblastoma, MYCN amplified, p53 wild-type
Experimental: as §1, §3

[12] = test system: NB-1; assay: Cell viability (CellTiter-Glo), NB-1; conditions: Homo sapiens, NB1; NB-1, neuroblastoma, MYCN amplified, p53 wild-type
Experimental: as §1, §3

[13] = test system: H526; assay: Cell viability (CellTiter-Glo), H526
Experimental: as §1
(§5) In addition to the many p53 wild-type cell lines in the cell line panel that were sensitive to USP7 inhibition, a subset of p53 mutant cell lines that were inhibited by our USP7 inhibitors were identified and are shown in Table 5.
The effect of pharmacological inhibition of USP7 on the viability of the p53 mutant small cell lung cancer cell line, H526 was further evaluated. […] In contrast, idasanutlin, whose inhibitory effect is dependent on a functional p53 pathway, had no effect.

[14] = test system: EBC-1; assay: Cell viability (CellTiter-Glo), EBC-1; conditions: Homo sapiens; EBC-1, lung, squamous cell carcinoma, p53-mutant
Experimental: as §1, §5

[15] = test system: NCI-H820; assay: Cell viability (CellTiter-Glo), NCI-H820; conditions: NCI-H820, lung, papillary adenocarcinoma, p53-mutant
Experimental: as §1, §5

[16] = test system: NCI-H2009; assay: Cell viability (CellTiter-Glo), NCI-H2009; conditions: Homo sapiens; NCI-H2009, lung, adenocarcinoma, p53-mutant
Experimental: as §1, §5

[17] = test system: HUH-7; assay: Cell viability (CellTiter-Glo), HUH-7; conditions: Homo sapiens; HUH-7, hepatocellular carcinoma, p53-mutant
Experimental: as §1, §5

[18] = test system: MHCC97-H; assay: Cell viability (CellTiter-Glo), MHCC97-H; conditions: Homo sapiens, MHCC97H, hepatocellular carcinoma, p53-mutant
Experimental: as §1, §5

[19] = test system: NCI-N87; assay: Cell viability (CellTiter-Glo), NCI-N87; conditions: Homo sapiens; NCI-N87, gastric, p53-mutant
Experimental: as §1, §5

[20] = test system: JJN-3; assay: Cell viability (CellTiter-Glo), JJN-3; conditions: Homo sapiens; JJN-3, multiple myeloma, p53-mutant
Experimental: as §1, §5

[21] = test system: HCC1806; assay: Cell viability (CellTiter-Glo), HCC1806; conditions: Homo sapiens; HCC1806, breast, triple-negative, p53-mutant
Experimental: as §1, §5

[22] = test system: HCC1937; assay: Cell viability (CellTiter-Glo), HCC1937; conditions: Homo sapiens; HCC1937, breast, triple-negative, BRCA1 mutant, p53-mutant
Experimental: as §1, §5

[23] = test system: LA-N-2; assay: Cell viability (CellTiter-Glo), LA-N-2; conditions: LA-N-2, neuroblastoma, MYCN-amplified, p53-mutant
Experimental: as §1, §5

[24] = test system: SK-N-DZ; assay: Cell viability (CellTiter-Glo), SK-N-DZ; conditions: Homo sapiens, neuroblastoma, MYCN-amplified, p53-mutant
Experimental: as §1, §5

Structure (SMILES): COc1cc(C(=O)O)ccc1NC(=O)[C@@H]1N[C@@H](CC(C)(C)C)[C@](C#N)(c2ccc(Cl)cc2F)[C@H]1c1cccc(Cl)c1F [Idasanutlin, reference compound]
- CC50 [1]: 0.03 µM
- CC50 [2]: 0.04 µM
- CC50 [3]: 0.02 µM
- CC50 [4]: 0.05 µM
- CC50 [5]: 0.3 µM
- CC50 [6]: 0.2 µM
- CC50 [7]: 0.02 µM
- CC50 [8]: 0.1 to 0.5 µM
- CC50 [9]: 0.2 µM
- CC50 [10]: 0.24 µM
- CC50 [11]: 0.01 µM
- CC50 [12]: 0.1 µM
- effect on viability of H526 ([13]; H526, p53 mutant small cell lung cancer, in vitro): had no effect
- CC50 ([13]; Homo sapiens, NCI-H526, H526, lung, small cell, p53-mutant, read-out: CC50): 6.5 µM
- CC50 [14]: 16.2 µM
- CC50 [15]: 9.7 µM
- CC50 [16]: > 25 µM
- CC50 [17]: > 25 µM
- CC50 [18]: > 25 µM
- CC50 [19]: 8.6 µM
- CC50 [20]: > 25 µM
- CC50 [21]: 7.5 µM
- CC50 [22]: 7.1 µM
- CC50 [23]: 5.3 µM
- CC50 [24]: > 12.5 µM
